Columns and labels:
[1] = Urinary excretion of phenolic metabolites over 48 h after one 450 mg capsule of the supplement (UHPLC-ESI-MS/MS); assay type: in vivo, human; details: for Urinary excretion 0 (h) / Urinary excretion 0–3 (h) / Urinary excretion 3–6 (h) / Urinary excretion 6–10 (h) / Urinary excretion 10–14 (h) / Urinary excretion 14–24 (h) / Urinary excretion 24–32 (h) / Urinary excretion 32–48 (h) / Urinary excretion Total (0–48 h): urine, n = 10, mean ± SEM; for Urinary excretion 0 (h): baseline (day before)
Method: (§1) This study was designed as a 3-week randomized, double-blind, cross-over clinical trial. Eligible participants were randomized using simple block randomization of 1:1. Once enrolled, subjects received either one 450 mg capsule of the test supplement or one 450 mg capsule of placebo on the first day of the study (Phase I: D1). After three days of sampling, volunteers started a wash-out period of 1 week and were then enrolled for the second test Phase with ingestion of the opposite supplement (Phase II: D1) (Figure 1). The placebo product was 100% maltodextrin, which was (poly)phenol-free.
Urine samples were collected the day before (baseline) and during the 48 h period following the supplementation (T0-T3, T3-T6, T6-T10, T10-T14, T14-T24, T24-T32 and T32-T48) (Figure 2). Urine volumes at each collection period were registered, and samples were aliquoted and stored at −80 °C until further processing.
Then, urine samples were prepared as previously reported by Brindani and colleagues. Briefly, urine samples were defrosted, vortexed, diluted in 0.1% formic acid in water (1:4, v/v) and centrifuged at 12,000 rpm for 5 min. Finally, urine samples were filtered (0.45 µm nylon filter) prior to UHPLC-ESI-MS/MS analysis.
(§2) Plasma and urine samples were analyzed by a UHPLC DIONEX Ultimate 3000 equipped with a triple quadrupole TSQ Vantage (Thermo Fisher Scientific Inc) fitted with a heated ESI (H-ESI) (Thermo Fisher Scientific Inc) probe, as previously reported. Separations were carried out by means of a Kinetex EVO C18 (100 × 2.1 mm) column, 2.6 µm particle size (Phenomenex, Torrance, CA, USA), installed with a pre-column (Phenomenex). Mobile phase A was 0.2% formic acid in water, and mobile phase B was acetonitrile containing 0.2% formic acid. The gradient started with 5% B, and isocratic conditions were maintained for 0.5 min, reaching 95% B after 6.5 min, followed by 1 min at 95%. The starting gradient was then immediately re-established and maintained for 5 min to re-equilibrate the column. The flow rate was 0.4 mL/min, the injection volume was 5 µL and the column temperature was set at 40 °C.
(§3) The applied MS method consisted of the selective determination of each target precursor ion by the acquisition of characteristic product ion in selective reaction monitoring (SRM) mode (Supplemental Table S2). For all the analyses, the spray voltage was set at 3 kV, the vaporizer temperature at 300 °C and the capillary temperature operated at 270 °C. The sheath gas flow was 50 units, and auxiliary gas pressure was set to 10 units. Ultra-high purity argon gas was used for collision-induced dissociation (CID). The S-lens values were defined for each compound based on infusion parameter optimization. Conversely, for those compounds not available for infusion, the S-lens values were set using the values obtained for the chemically closest available standards. Quantification was performed with calibration curves of standards when available or using the most structurally similar compound. Data processing was performed using Xcalibur software (Thermo Scientific Inc., San Jose, CA, USA).
All data were expressed as mean values ± standard deviation (SD) and mean values ± standard error to the mean (SEM) for metabolites in blood and urine samples. PKSolver add-on program in Microsoft Excel was used to determine pharmacokinetic parameters of blood phenolic metabolites, including time to reach the maximum plasma concentration (Tmax, h), maximum plasma concentration (Cmax, nmol/L), area under the curve (AUC0-24, nmol/L·h), and time of presence of metabolites in circulation (Tpres, h). Tpres was calculated by taking the time interval between the first appearance and the last appearance of the considered metabolite. Coefficient of variation (CV) was evaluated for each metabolite and multivariate principal component analysis (PCA) was applied to explore the inter-individual variation in the urinary metabolites among the participants. […]

[2] = Plasma pharmacokinetics of phenolic metabolites after one 450 mg capsule of the supplement (UHPLC-ESI-MS/MS); assay type: in vivo, human; details: for Cmax / Tmax / Tpres (time of presence of metabolites in circulation): n = 10, mean ± SEM; for Tpres (time of presence of metabolites in circulation): interval between first and last appearance; for AUC0-24: supplemented volunteers (n = 10), 450 mg capsule, mean ± SEM
Method: as §1
On the day of the test (D1), volunteers visited the Research Center after an overnight fast. Blood was collected at T0 to determine baseline levels of plasma phenolic metabolites. Then, volunteers were invited to take the 450 mg capsule of the supplement or the placebo with 250 mL of still water (Figure 2). Additional blood samples were then collected at 1 h (D1, T1), 2 h (D1, T2), 3 h (D1, T3), 4 h (D1, T4), 5 h (D1, T5), 6 h (D1, T6), 8 h (D1, T8), 10 h (D1, T10) and 24 h (D2, T24) after capsule intake. Blood was taken from the basilica vein and centrifuged at 3000 rpm for 10 min at 4 °C. Plasma was immediately extracted and frozen at −80 °C for further analysis.
Plasma samples were then extracted using a solid phase extraction (SPE) method, as previously reported by Castello and colleagues. Briefly, 350 µL of plasma samples was diluted (1:1) with phosphoric acid 4% (v/v). After plate activation, 600 µL of the diluted plasma samples was loaded on a 96 well µ-SPE HLB (Oasis® HLB µElution Plate 30 µm, Waters, Milford, Massachusetts, MA, USA). Samples were washed with 200 µL of water and 200 µL of 0.2% (v/v) acetic acid. Finally, samples were eluted with 60 µL of methanol for UHPLC-ESI-MS/MS analysis.
as §2, §3
All data were expressed as mean values ± standard deviation (SD) and mean values ± standard error to the mean (SEM) for metabolites in blood and urine samples. […]

| SMILES | Urinary excretion 0 (h) [1] | Urinary excretion 0–3 (h) [1] | Urinary excretion 3–6 (h) [1] | Urinary excretion 6–10 (h) [1] | Urinary excretion 10–14 (h) [1] | Urinary excretion 14–24 (h) [1] | Urinary excretion 24–32 (h) [1] | Urinary excretion 32–48 (h) [1] | Urinary excretion Total (0–48 h) [1] | Cmax [2] | Tmax [2] | Tpres (time of presence of metabolites in circulation) [2] | AUC0-24 [2] | Time of maximum (peak) urinary excretion ([1]; collection interval post-consumption) |
| --- | --- | --- | --- | --- | --- | --- | --- | --- | --- | --- | --- | --- | --- | --- |
| COc1cc(C(=O)O)cc(OC)c1O.COc1cc(C(=O)O)cc(OC)c1O [compound 39] | 0.71 ± 0.46 µg | 8.71 ± 8.71 µg | 3.89 ± 3.81 µg | 3.57 ± 2.82 µg | 1.42 ± 1.38 µg | 3.63 ± 2.95 µg | 3.33 ± 2.94 µg | 8.73 ± 8.35 µg | 33.92 ± 30.72 µg | – | – | – | – | – |
| O=C(O)CNC(=O)c1ccc(O)cc1 [compound 47] | – | – | – | – | – | – | – | – | – | 816 ± 269 nM | 6.50 ± 1.28 h | 21.55 ± 0.74 h | 5.71944 ± 1.32787 µM·h | – |
| O=C(O)C1OC(Oc2cc(CCO)ccc2O)C(O)C(O)C1O (stereo not drawn) [compound 33] | – | 53.75 ± 15.51 µg | 69.04 ± 13.20 µg | 38.02 ± 8.17 µg | 10.90 ± 3.90 µg | 10.23 ± 3.71 µg | 0.75 ± 0.75 µg | – | 182.69 ± 19.99 µg | 24.9 ± 5.63 nM | 1.45 ± 0.32 h | 8.45 ± 2.19 h | 0.05092 ± 0.00585 µM·h | 3 to 6 h |
| O=C1CCC(Cc2cccc(O[C@@H]3O[C@H](C(=O)O)[C@@H](O)[C@H](O)[C@H]3O)c2)O1 (stereo partly drawn) [compound 17] | 15.01 ± 15.01 µg | 15.42 ± 15.42 µg | 196.48 ± 138.99 µg | 169.91 ± 105.95 µg | 65.96 ± 36.27 µg | 468.44 ± 330.34 µg | 81.71 ± 28.26 µg | 16.56 ± 16.56 µg | 1029.49 ± 394.77 µg | 6.34 ± 1.66 nM | 5.88 ± 0.95 h | 7.13 ± 2.27 h | 0.022 ± 0.00641 µM·h | – |
| COc1cc(CCC(=O)O)ccc1OS(=O)(=O)O [compound 46] | – | – | – | – | – | – | – | – | – | 169 ± 156 nM | 6.43 ± 2.97 h | 7.14 ± 3.61 h | 0.55828 ± 0.53121 µM·h | – |
| O=C(O)[C@H]1O[C@@H](Oc2ccc3c(c2)oc(=O)c2ccc(O)cc23)[C@H](O)[C@@H](O)[C@@H]1O [compound 43] | – | – | – | 6.91 ± 6.55 µg | 5.49 ± 5.21 µg | 36.41 ± 34.54 µg | 14.38 ± 9.83 µg | 5.33 ± 5.05 µg | 68.53 ± 55.19 µg | – | – | – | – | – |

Reference: article PMC9692523, “Exposure to (Poly)phenol Metabolites after a Fruit and Vegetable Supplement Intake: A Double-Blind, Cross-Over, Randomized Trial” (Nutrients, 2022)
